# Source: patent US20230202982A1, “5-CHLORO-4-HYDROXY-1-METHYL-2-OXO-N-PHENYL-QUINOLINE-3-CARBOXAMIDE POTASSIUM SALT FOR TREATING INFLAMMATORY BOWEL DISEASES” (Aqilion AB, priority 2020, published 2023)
# Read-outs that look alike come from different tables or passages of the source.
# Key:
# [1] = Stability in aqueous solutions (impurity profile by HPLC-UV); format: physicochemical; conditions: PBS (pH 7.4) and SCF, room temperature, 48 and 72 hours
# Description: (§1) The solubility and stability at room temperature of Example compound 1 and the free acid compound 5-chloro-4-hydroxy-1-methyl-2-oxo-N-phenyl-quinoline-3-carboxamide (described in Example 1a) above) was determined in PBS (pH 7.4) and in simulated colonic fluid (SCF) at ambient temperature. The SCF was the product FaSSCof obtained from Biorelevant.com prepared according to the manufacturer’s instructions. FaSSCof contains 0.15 mM sodium cholate, 0.3 mM Phospholipids, 0.1 mM Oleate, 120 mM sodium hydroxide, 45 mM TRIS and 76 mM maleate.
# (§2) Saturated solutions were prepared in these solvents and the concentrations/impurity profile was determined by HPLC-UV using a calibration curve in the range of 1 to 150 µg/ml at 300 nm or 320 nm. Visual evaluation was also performed after every step over the testing period.
# The samples were also analysed for the presence of impurities. After a period of 48 and 72 hours, all impurities were below the lower limit of quantitation.
# [2] = Thermogravimetric analysis (TGA) and differential scanning calorimetry (DSC); format: physicochemical; conditions: heating 20° C./min, nitrogen
# Description: For the TGA analysis, approximately 5-10 mg of sample of Example Compound 1 was accurately weighed into a pierced Tzero aluminium pan and sealed with a pinhole lid using a crimper. The sample was then loaded into the chamber of a TGA thermal analyser at ambient temperature. A TA Instruments TGA5500 device was used. The sample was then heated at a rate of 20° C./min from 20° C. to 400° C. The purge gas used was nitrogen at a flow rate of 50 cm^3/min.
# For the DSC analysis, approximately 2 mg of sample was accurately weighed into a pierced Tzero aluminium pan and sealed using a universal crimper. The sample was then loaded into the chamber of a DSC analyser at ambient temperature. A TA Instruments DSC2500 device was used. The sample was then heated at a rate of 20° C./min from 30° C. to 400° C. The purge gas used was nitrogen at a flow rate of 50 cm^3/min
# [3] = Slurry in water for 48 hours, re-examined by XRPD (disproportionation); format: physicochemical; conditions: slurry in water 20 mg / 400 uL, ambient temperature, potassium salt
# Description: When a sample of Example compound 1 was stored in a slurry in water at 20 mg / 400uL for 48 hours at ambient temperature, recovered, dried by evaporation and re-examined by XRPD, there was no change in the X-ray diffractogram.
# [4] = Solubility in PBS (pH 7.4) and simulated colonic fluid, saturated solutions by HPLC-UV; format: physicochemical; conditions: thermodynamic from solid, saturated solution, ambient temperature
# Description: as §1, §2
# [5] = In vivo pharmacokinetic study in rats after oral dosing; set-up: species or system Sprague Dawley rats; conditions: 1 mg/kg oral; for Level in plasma after oral dosing: 15 min to 24 h post dose
# Description: An in vivo pharmacokinetic study in rats was performed to determine if 5-chloro-4-hydroxy-1-methyl-2-oxo-N-phenyl-quinoline-3-carboxamide potassium salt (example compound 1) can be absorbed and detected systemically after oral dosing.
# 4 male Sprague Dawley rats, approximately 225 g - 250 g at dosing were dosed with 1 mg/kg of Example compound 2 formulated as a 0.1 mg/mL suspension with sodium carboxymethyl cellulose (1%, w/v). Blood samples were taken at 15 min, 30 min, 1 h, 2 h, 4 h, 6 h, 8 hand 24 h post dose
# At each blood sampling approximately 250 µL blood was sampled in K3EDTA vials and approximately 100 µL plasma was also prepared.
# The plasma samples were prepared by mixing 50 µL plasma with 250 µL of internal standard solution (20 ng/ml of phenacetin in ACN with 1% formic acid), mixed and centrifuged (20 min, 4000 rpm).
# Plasma samples were transferred to Waters Ostro 96-well plate and drawn through the plate by applying 6-8 psi positive pressure for 10 min. 100 µL of supernatant was further diluted with 50 µL UP water and sample was submitted to analysis.
# The standard and QC samples were prepared into blank rat colon homogenate and blank rat plasma. Standards were spiked into concentrations 0.1 - 10000 ng/ml of the analytes, QC samples into 3, 30, 300 and 3000 ng/ml, and were otherwise treated as samples.
compound,measurement,setting,value
"Cn1c(=O)c(C(=O)Nc2ccccc2)c([O-])c2c(Cl)cccc21.[K+] [Example compound 1, 5-chloro-4-hydroxy-1-methyl-2-oxo-N-phenyl-quinoline-3-carboxamide potassium salt]",Stability in aqueous solution (impurities),[1],stable in aqueous solution
same,Degradation temperature,"[2]; listed as 5-chloro-4-hydroxy-1-methyl-2-oxo-N-phenyl-quinoline-3-carboxamide potassium sal, potassium salt",347 °C
same,Degradation temperature,"[2]; listed as Example Compound 1, potassium salt",347 °C ±2 °C
same,Degradation temperature,[2]; potassium salt,347 °C
same,Stability in water slurry: change in X-ray diffractogram,[3]; listed as 5-chloro-4-hydroxy-1-methyl-2-oxo-N-phenylquinoline-3-carboxamide potassium salt,stable when in a slurry
same,Stability in water slurry: change in X-ray diffractogram,[3],no change
same,solubility,"[4]; aqueous buffer, PBS (pH 7.4), read-out: Solubility in PBS (pH7.4)",0.91 µg/mL
same,solubility,"[4]; simulated colonic fluid (FaSSCof), fassgf or other biorelevant, SCF (FaSSCof), read-out: Solubility in simulated colonic fluid (SCF)",7.99 µg/mL
same,Level in plasma after oral dosing,"[5]; FIG. 7, listed as 5-chloro-4-hydroxy-1-methyl-2-oxo-N-phenyl-quinoline-3-carboxamide potassium sal, potassium salt",absorbed through the intestine into the plasma
same,Level in plasma after oral dosing,"[5]; FIG. 7, potassium salt",detected in the plasma
same,Clearance from plasma,[5]; FIG. 7,rapidly cleared
